In patent US6482609B1, “Isolated human EDG-4 receptor and polynucletide encoding said receptor” (priority 1997, dated 2002):
Where two headings read alike, the source gives them in different places.

Legend:
[1] = target: human EDG-4 (Homo sapiens, UniProt O95136); assay: SRE luciferase reporter in 293-EBNA cells, human EDG-4; assay type: cell-based; details: for EC50: 293-EBNA expressing human EDG-4, luciferase after 6 hr, pcDNA3 response subtracted; for Agonist character at EDG-4: conclusion from the reporter assay of Table 2; for Rank (EMax): rank of efficacy among compounds tested
Experimental: NE-κB activates gene expression by binding to specific DNA sequences found in the promoters of genes regulated by this inflammation-related transcription factor. […] The SRE reporter was identical to the NF-κB reporter, except that the NF-κB binding sites were replaced with 2 SRE sites. The new reporter was called 2XSREtk-p4Luc-zeo.
The protocol described in Example 11 for Assay 1 was followed except for the following changes:
2) SRE Cotransfection: 0.5 μg of 2XSREtk-p4Luc-zeo reporter DNA and 3.5 μg pcDNA3, EDG-1, EDG-3 (pC3-hE3HP2, different from the clone used in Assay 2 of Example 11) or the newly cloned human EDG-4 (pC3-hedg4#36); NF-κB Cotransfection: 2 μg 6XNFκBtk-p4Luc-zeo reporter DNA and 2.0 μg pcDNA3, EDG-1, EDG-3 (pC3-hE3HP2), or EDG-4 (pC3-hedg4#36). Expression plasmid and reporter plasmid DNA samples were combined and diluted in 750 μl of DMEM/F12 (serum free media) and 20 μl Plus Reagent (Lipofectamine Plus Kit, Life Technologies Cat. 10964-013), and incubated at room temperature for 15 min.
1) Media was removed and cells treated with compounds diluted in DMEM/F12 media.
2) The cells were treated for 6 hours.
3) Luciferase assay was performed.
Transfection was accomplished using the Lipofectamine Plus kit (Life Technologies, Cat. 10964-013), using the manufacturer's recommended conditions.
(§1) Transfection of EDG-4, expression, pretreatment and treatment of 293-EBNA cells expressing recombinant human EDG-4 was carried out essentially as described in “Example 11. […] Results were tabulated in Microsoft Excel, and analyzed with GraphPad Prism software. […] The luciferase response was expressed as fold response, after subtracting any endogenous response in pcDNA3-transfected cells at a given concentration of compound.

[2] = system: Human Umbilical Vein Endothelial Cells (HUVEC); assay: IL-8 ELISA on primary cultured HUVEC treated with lysolipids; assay type: cell-based; details: 6 hr treatment
Experimental: Plating, Pretreatment and Treatment of HUVEC
Procedures were followed as detailed above in “Procedure #1 for HeLa Cells” with the following exceptions:
Cells were plated at 20,000 cells/well into 24-well plates. The next day, cells were serum-starved overnight in EBM medium (Clonetics) with 0.5% FBS, and then treated in EBM without FBS for 6 hr with the following lysolipids:
Supematants were collected and IL-8 levels were deternined using ELISA as described previously.

[3] = system: 293-EBNA cells expressing recombinant human EDG-4; assay: Cytotoxicity seen in the EDG-4 agonist reporter assay (293-EBNA cells); assay type: cell-based
Experimental: as §1

[4] = system: HeLa cells; assay: IL-8 ELISA on supernatants of treated HeLa cells; assay type: cell-based, human; details: for Inhibition of IL-8 response to S1P by antioxidants: NDGA 10 or 40 μM, NAC 30 mM
Experimental: Procedure #1 For HeLa Cells
Cells: HeLa (adenocarcinoma, human)
Media: DMEM/F12+10%FBS adherent
1) Cells were seeded at 0.2×10^6 cells/well in 6-well plates.
2) 1.5 ml 0.5% FBS media was added to each well.
1) Made up all required solutions in 0.5% FBS media (control). Handling of […] for use in NF-κB experiments requires that sonication, commonly used to resuspend LPA, not be done; NF-κB may be activated by lipid peroxides created through vigorous frothing.
3) 1.5 ml appropriate treatments were added to each well.
5) After the specified time cell supernatants were collected into 1.5 ml eppendorf tubes, spun down at 14000 rpm for 5 minutes and stored at −20° C. for later ELISA determination.
D. Detection of Interleukin-8 (IL-8) using an IL-8 ELISA (Enzyme-Linked InimunoSorbent Assay).
1) The Quantikine Human IL-8 ImmunoAssay Kit was obtained from R&D Systems (Cat. D8050).
4) The assay procedure was followed as recommended in the kit for cell culture supernatant samples.
5) ELISA was performed on 50 μl samples of culture supernatant and duplicate samples were measured for each well. Each treatment was performed on triplicate wells.
6) Plates were read on UVmax kinetic microplate reader (Molecular Devices), set to 450 nm and correction set to 575 nm, using Wsoftmax software version 2.34.
Procedure #2 For HeLa Cells
1) Cells were seeded at 2.5×10^4 cells/well in 24-well plates.
2) 0.5 ml 0.5% FBS media was added to all wells not requiring PTX pre-treatment.
3) For wells requiring PTX; 0.5 ml 0.5% FBS media containing 50 ng/ml PTX (1 volume PTX (RBI Cat. P140): 1 volume DTT, incubate 37° C. for 30 minutes then dilute to 50 ng/ml) was added.
Follow Procedure #2 For HeLa Cells with the following exceptions:
Concentrations for LPC, LPE, LPG, LPS, sphingosine and SM used were 10, 50, 100, 1000, and 5000 nM. Concentrations for LPI, lyso-PAF and lysosulfatide used were 0.3 and 3 μM.
2) A 30 minute pre-treatment at 37° C./5%CO2 of 0.5 ml of suramin was done to all wells except control, any PTX and ET-18-OCH3 wells before step 3 of section C.

[5] = system: HeLa cells; assay: Cytotoxicity (viable cell count) in HeLa cells; assay type: cell-based, human; details: 40 μM
Excerpt: Follow Procedure #2 For HeLa Cells with the following exceptions: […]

[6] = target: rat edg4 (Rattus norvegicus, UniProt P47752); assay: NF-κB-tk-p4Luc luciferase reporter in 293-EBNA cells, rat EDG-4; assay type: cell-based; set-up: expressed in transfected cells; host or cells: 293-EBNA; details: pC3-redg4, Assay #1, 24 hrs
Chain of rat edg4 (P47752 whole entry): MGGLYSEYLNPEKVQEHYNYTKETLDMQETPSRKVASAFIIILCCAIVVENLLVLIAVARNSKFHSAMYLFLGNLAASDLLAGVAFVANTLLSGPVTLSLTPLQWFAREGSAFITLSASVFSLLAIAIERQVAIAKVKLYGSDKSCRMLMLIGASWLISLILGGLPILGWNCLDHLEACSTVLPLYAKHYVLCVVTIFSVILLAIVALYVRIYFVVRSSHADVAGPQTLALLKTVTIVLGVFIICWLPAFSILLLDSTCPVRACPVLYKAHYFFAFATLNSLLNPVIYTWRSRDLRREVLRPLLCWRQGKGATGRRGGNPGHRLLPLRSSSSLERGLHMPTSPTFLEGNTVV
Experimental: Monolayer Transient Transfection Protocol for 293-EBNA
1) 150 mm plates of 293-EBNA obtained from Invitrogen (Cat. R620-07) with a confluency of ˜80% were used for transfection.
2) 6.6 μg NF-κB-tk-p4Luc reporter DNA and 6.6 μg of pC3-redg4 (expressing rat EDG-4), or pcDNA3 DNA was diluted in 500 μl OPTI-MEM (Gibco; Cat. 31985-062)
3) 96.8 μl Lipofectamine (Gibco; Cat. 18324-020) was diluted in 500 μl of OPTI-MEM.
6) 6 ml OPTI-MEM was added to each transfection tube and this was added to a plate of 293-EBNA cells. The plates were left for 4 hrs at 37° C. in a 5% CO2 incubator.
2) 0.02×10^6 cells were plated per well of a 96-well Blackview plate coated with polyD-lysine. No cells were plated in the outside wells of the 96well plate. Two 96-well plates were seeded for each transfection.
1) Cells were washed with PBS and 140 μl serum-free media (SFM) added to each well. Plates were incubated in 37° C. incubator for 6 hrs.
2) After 6 hrs, media was removed and cells treated with compounds diluted in 0.5% FBS media (140 μl added to each well).
3) Cells were treated for 24 hrs.
1) Luclite kit (Packard; Cat. 6016911) was used for luciferase assay. All reagents were brought to room temperature before use.
3) 50 μl 0.5M HEPES pH 7.8 buffer (1 mM MgCl2, 1 mM CaCl2) was added to all wells of 96-well plate. Black adhesive backing (Polyfitronics) was aligned to the bottom of the viewplate.
4) Luclite substrate was made up by adding 10 ml substrate diluent to 1 vial lyophilized substrate. Reconstituted substrate was kept under a dark container. 50 μl substrate was added to each well.
7) After incubation, plates were counted in a 12-detector Packard Top Count on a program without dark delay.
Transient Transfection Protocol for 293-EBNA
The above protocol for assay 1 was followed except for the following changes:
2) 3 μg NFκB-tk-p4Luc reporter DNA and 3 μg pC3-hedg1, pC3-hedg3, pC3-redg4, pC3-hedg5 or pcDNA3 DNA was diluted in 240 μl OPTI-MEM (Gibco; Cat. 31985-062)
1) 0.01×10^6 cells were plated per well of a 96-well Blackview plate coated with polyD-lysine. No cells were plated in the outside wells of the 96-well plate.

[7] = system: HL-60 cells; assay: IL-8 ELISA on HL-60 cells; assay type: cell-based, human; details: 1, 6 or 24 hr, S1P or LPA up to 3 μM, TNF-α 10 ng/ml
Experimental: Procedure for HL-60 Cells:
Cells: HL-60 (promyelocytic, human) suspension cells
Media: RPMI 1640 medium with 2 mM L-glutamine adjusted to contain 4.5 g/L glucose, 10 mM HEPES, and 1.0 mM sodium pyruvate+10% FBS
1) Cells were plated at a density of 0.25×10^6 cells/ml.
2) Cell pellcts were resuspended in 0.5% FBS media at a density of approximately 1×10^6 cells/ml.
1) Made up all required solutions in 0.5% FBS media (control).
2) 1.4 ml appropriate treatments were added to each well of a 6-well plate.
5) 100 μl cell suspension was added to each well.
7) After the specified time cell supematants were collected into 1.5 ml eppendorf tubes, spun down at 14000 rpm for 5 minutes and stored at −20° C.
D. Refer to Procedure #1 For HeLa Cells (D).

[8] = S1P 1 μM, 30 minute pre-treatment

`CCCCCCCCCCCCCCC[C@@H](O)[C@@H](N)COP(=O)(O)O` [Dihydro-S1P, dihydrosphingosine 1-phosphate] was tested, and the EC50 [1] was 0.53 µM, the “Agonist character at EDG-4” value [1] was “partial agonist” and the “Max. Fold” value ([1]; fold luciferase response, 6 hr) was 2.84. The “Rank (EMax)” value [1] was 3 and the “EMax (Percent)” value ([1]; relative efficacy, 6 hr) was 49.2%.

`CCCCCCCCCCCCCCCCCCOCC(COP(=O)([O-])OCC[N+](C)(C)C)OC` (stereo not drawn) [Edelfosine] was tested, and the “IL-8 response (qualitative)” value [2] was “no response”.

In the case of `CCCCCCCCCCCCC/C=C/[C@@H](O)C(N)CO[C@@H]1O[C@H](CO)[C@@H](O)[C@H](O)[C@@H]1O` (stereo partly drawn) [Glucospychosine, glucopsychosine], the EC50 [1] is reported as greater than 10 µM, the “Agonist character at EDG-4” value [1] is reported as “poor potency and efficacy” and the “Rank (EMax)” value [1] is reported as 4. For the same compound, the “Concentration at which cytotoxicity was seen” value [3] was “^aCytotoxicity was seen at 10 μM or higher concentrations, preventing quantitative determination of EC50 or EMax” and the “Cytotoxicity (qualitative)” value [3] was “cytotoxicity at higher concentrations”.

`CC(=O)N[C@@H](CS)C(=O)O` [NAC] was tested, and the “Inhibition of IL-8 response to S1P by antioxidants” value [4, 8] was “significantly inhibited”.

For `CC(Cc1ccc(O)c(O)c1)C(C)Cc1ccc(O)c(O)c1` (stereo not drawn) [NDGA], the “Relative potency of antioxidants in inhibiting IL-8 response to S1P” value ([4]; S1P 1 μM) was “more potent than the hydrophilic NAC”, the “Inhibition of IL-8 response to S1P at 40 μM” value ([4]; S1P 1 μM, NDGA 40 μM) was “completely inhibited the IL-8 response to S1P” and the “Inhibition of IL-8 response to S1P by antioxidants” value [4, 8] was “significantly inhibited”. The Toxicity [5] was “some toxicity”.

`CCCCCCCCCCCCC/C=C/[C@@H](O)[C@@H](N)CO[C@@H]1O[C@H](CO)[C@H](O)[C@H](O)[C@H]1O` [Psychosine] was tested, and the EC50 [1] was greater than 10 µM, the “Agonist character at EDG-4” value [1] was “poor potency and efficacy” and the “Rank (EMax)” value [1] was 5. For the same compound, the “Cytotoxicity (qualitative)” value ([3]; higher concentrations) was “cytotoxicity at higher concentrations” and the “IL-8 response (qualitative)” value [2] was “Marginal increases”.

In the case of `Cc1ccc(C(=O)Nc2ccc(S(=O)(=O)O)c3cc(S(=O)(=O)O)cc(S(=O)(=O)O)c23)cc1NC(=O)c1cccc(NC(=O)Nc2cccc(C(=O)Nc3cc(C(=O)Nc4ccc(S(=O)(=O)O)c5cc(S(=O)(=O)O)cc(S(=O)(=O)O)c45)ccc3C)c2)c1` [Suramin], the “Inhibition of the IL-8 response to edelfosine” value ([4]; PTX 50 ng/ml or suramin 1 mg/ml) is reported as “potently inhibited” and the “Effect of suramin on IL-8 response to S1P” value ([4]; S1P 1 μM, suramin 1 mg/ml, 30 minute pre-treatment) is reported as “extremely effective in blunting the IL-8 response to S1P”.

For `CCCCCCCCCCCCCC(=O)O[C@@H]1[C@@H](C)[C@@]2(O)[C@@H](C=C(CO)C[C@]3(O)C(=O)C(C)=C[C@@H]23)[C@H]2C(C)(C)[C@]12OC(C)=O` [TPA], the “NF-κB reporter induction (qualitative)” value [6] was “strongly induced the NF-κB reporter”.

For `CCCCC/C=C\C/C=C\C/C=C\C/C=C\CCCC(=O)NCCO` [anandamide], the “IL-8 response (qualitative)” value [2] was “no response”.

`CCCCCCCCCCCCC/C=C/[C@@H](O)[C@@H](N)CO` [sphingosine, Sphingosine] was tested, and the “IL-8 production (ligand selectivity)” value ([4]; 6 hours, 10-5000 nM or 0.3 and 3 μM) was “lack of response”.

In the case of TNF-α, the IL-8 release [7] is reported as “releasing IL-8”.
